Our source for the relative viability values is the supplement of paper PMC10307832.

Holding throughout (assay): relative viability (nuclei count vs DMSO), 5 days (fraction); higher = more cells survive
Compound in assay [1]: COC1=C(C=C(C=C1)C2=CC3=NC=CN3C(=N2)NC4=C(C=CC=N4)C(=O)N)OC [BAY61-3606] + CC(C)C[C@H](NC(=O)[C@H](Cc1ccccc1)NC(=O)c1cnccn1)B(O)O [Bortezomib] (partner 0.002 µM)
In short, it runs like this: (§1)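 After 5 days of treatment, lung cancer cells in 1536-well plates were fixed and stained in a single step (final 0.05% Triton X-100, 1% formaldehyde, 1 ug/ml Hoechst) and their nuclei counted on 4× images. Treatment had been applied by pin tool the day after seeding as one drug alone or as a fixed anchor-drug dose with five library-drug doses (not always all listed) in √10 steps. Relative viability is the nuclei count of treated wells divided by that of vehicle wells, and values are medians of duplicate plates.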

Compound in assay [2]: COC1=C(C=C(C=C1)C2=CC3=NC=CN3C(=N2)NC4=C(C=CC=N4)C(=O)N)OC [BAY61-3606] + C[C@@H](Oc1cc(-c2cnn(C3CCNCC3)c2)cnc1N)c1c(Cl)ccc(F)c1Cl [Crizotinib] (partner 1 µM)
In short, it runs like this:
as §1

Compound in assay [3]: COc1cccc2c1C(=O)c1c(O)c3c(c(O)c1C2=O)C[C@@](O)(C(=O)CO)C[C@@H]3O[C@H]1C[C@H](N)[C@H](O)[C@H](C)O1 [Doxorubicin] + CC(C)C[C@H](NC(=O)[C@H](Cc1ccccc1)NC(=O)c1cnccn1)B(O)O [Bortezomib] (partner 0.002 µM)
In short, it runs like this:
as §1

Compound in assay [4]: COc1cccc2c1C(=O)c1c(O)c3c(c(O)c1C2=O)C[C@@](O)(C(=O)CO)C[C@@H]3O[C@H]1C[C@H](N)[C@H](O)[C@H](C)O1 [Doxorubicin] + NC(=O)Nc1cc(-c2cccc(F)c2)sc1C(=O)N[C@H]1CCCNC1 [AZD7762] (partner 0.2 µM)
In short, it runs like this: as §1

As to NCI-H596, the relative viability is 0.99 in assay [1] (first compound 0.02 µM); 1.08 in assay [1] (first compound 0.06325 µM); 1.17 in assay [1] (first compound 0.2 µM); 1.48 in assay [1] (first compound 0.6325 µM); 1.1 in assay [1] (first compound 2 µM); 0.969 in assay [2] (first compound 0.02 µM). For the same cell line, the relative viability in assay [2] (first compound 0.06325 µM) stood at 1.01; in assay [2] (first compound 0.2 µM), 1.08; in assay [2] (first compound 0.6325 µM) it was 1.19; in assay [2] (first compound 2 µM), 0.931; in assay [3] (first compound 0.003162 µM), 1.26; in assay [3] (first compound 0.01 µM) it was 1.01. In addition, the relative viability in assay [3] (first compound 0.03162 µM) was found to be 0.928; in assay [3] (first compound 0.1 µM), 0.972; in assay [4] (first compound 0.001 µM), 1.13; in assay [4] (first compound 0.003162 µM), 1.12; in assay [4] (first compound 0.01 µM), 0.987; in assay [4] (first compound 0.03162 µM), 0.986. The relative viability in assay [4] (first compound 0.1 µM) worked out at 0.959.

As to NCI-H3122, the relative viability in assay [1] (first compound 0.02 µM) stood at 0.947; in assay [1] (first compound 0.06325 µM) it was 1.02; in assay [1] (first compound 0.2 µM), 1.05; in assay [1] (first compound 0.6325 µM) it was 0.988; in assay [1] (first compound 2 µM), 1; in assay [2] (first compound 0.02 µM), 0.252. Moreover, the relative viability in assay [2] (first compound 0.06325 µM) is 0.286; in assay [2] (first compound 0.2 µM), 0.279; in assay [2] (first compound 0.6325 µM), 0.272; in assay [2] (first compound 2 µM) it was 0.219; in assay [3] (first compound 0.001 µM), 1.04; in assay [3] (first compound 0.003162 µM), 0.97. Moreover, the relative viability in assay [3] (first compound 0.01 µM) came out at 1.02; in assay [3] (first compound 0.03162 µM), 1.01; in assay [3] (first compound 0.1 µM), 0.957; in assay [4] (first compound 0.001 µM), 0.964; in assay [4] (first compound 0.003162 µM), 1.03; in assay [4] (first compound 0.01 µM) it was 0.894. Moreover, the relative viability in assay [4] (first compound 0.03162 µM) was 0.989; in assay [4] (first compound 0.1 µM), 0.952.

In the case of HCC-15, the relative viability in assay [1] (first compound 0.02 µM) came to 1.04; in assay [1] (first compound 0.06325 µM), 1.06; in assay [1] (first compound 0.2 µM) it was 0.967; in assay [1] (first compound 0.6325 µM) it was 0.937; in assay [1] (first compound 2 µM), 1.01; in assay [2] (first compound 0.02 µM), 0.835. The relative viability stood at 0.834 in assay [2] (first compound 0.06325 µM); 0.806 in assay [2] (first compound 0.2 µM); 0.836 in assay [2] (first compound 0.6325 µM); 0.779 in assay [2] (first compound 2 µM); 0.953 in assay [3] (first compound 0.001 µM); 1.02 in assay [3] (first compound 0.003162 µM). Further, the relative viability in assay [3] (first compound 0.01 µM) amounted to 0.923; in assay [3] (first compound 0.03162 µM), 0.623; in assay [3] (first compound 0.1 µM), 0.636; in assay [4] (first compound 0.001 µM), 1.21; in assay [4] (first compound 0.003162 µM) it was 1.18; in assay [4] (first compound 0.01 µM) it was 1.05. The relative viability in assay [4] (first compound 0.03162 µM) stood at 1.03; in assay [4] (first compound 0.1 µM), 1.35.

For HCC-78, the relative viability in assay [1] (first compound 0.02 µM) was 0.452; in assay [1] (first compound 0.06325 µM), 0.535; in assay [1] (first compound 0.2 µM) it was 0.526; in assay [1] (first compound 0.6325 µM), 0.479; in assay [1] (first compound 2 µM), 0.427; in assay [2] (first compound 0.02 µM), 0.385. Further, the relative viability in assay [2] (first compound 0.06325 µM) came out at 0.308; in assay [2] (first compound 0.2 µM), 0.317; in assay [2] (first compound 0.6325 µM), 0.343; in assay [2] (first compound 2 µM) it was 0.367; in assay [3] (first compound 0.001 µM) it was 0.322; in assay [3] (first compound 0.003162 µM), 0.532. Moreover, the relative viability in assay [3] (first compound 0.01 µM) was found to be 0.419; in assay [3] (first compound 0.03162 µM), 0.392; in assay [3] (first compound 0.1 µM), 0.562; in assay [4] (first compound 0.001 µM) it was 0.535; in assay [4] (first compound 0.003162 µM), 0.606; in assay [4] (first compound 0.01 µM) it was 0.703. The relative viability amounted to 0.636 in assay [4] (first compound 0.03162 µM) and 0.503 in assay [4] (first compound 0.1 µM).

Consider HCC-827, for which the relative viability in assay [1] (first compound 0.02 µM) was 1.03; in assay [1] (first compound 0.06325 µM) it was 1.07; in assay [1] (first compound 0.2 µM) it was 1.01; in assay [1] (first compound 0.6325 µM), 1.02; in assay [1] (first compound 2 µM), 1.1; in assay [2] (first compound 0.02 µM), 0.938. The relative viability in assay [2] (first compound 0.06325 µM) came out at 0.952; in assay [2] (first compound 0.2 µM) it was 0.942; in assay [2] (first compound 0.6325 µM), 0.974; in assay [2] (first compound 2 µM), 0.965; in assay [3] (first compound 0.001 µM), 1.05; in assay [3] (first compound 0.003162 µM), 1.03. In addition, the relative viability in assay [3] (first compound 0.01 µM) is 1.07; in assay [3] (first compound 0.03162 µM), 1.01; in assay [3] (first compound 0.1 µM), 0.956; in assay [4] (first compound 0.001 µM) it was 0.134; in assay [4] (first compound 0.003162 µM) it was 0.214; in assay [4] (first compound 0.01 µM), 0.197. Further, the relative viability turned out to be 0.191 in assay [4] (first compound 0.03162 µM) and 0.174 in assay [4] (first compound 0.1 µM).

For the cell line NCI-H1355, the relative viability worked out at 1.19 in assay [1] (first compound 0.02 µM); 1.07 in assay [1] (first compound 0.06325 µM); 1.17 in assay [1] (first compound 0.2 µM); 1.27 in assay [1] (first compound 0.6325 µM); 1.21 in assay [1] (first compound 2 µM); 1.08 in assay [2] (first compound 0.02 µM). Further, the relative viability was found to be 1.04 in assay [2] (first compound 0.06325 µM); 1.05 in assay [2] (first compound 0.2 µM); 1.07 in assay [2] (first compound 0.6325 µM); 0.81 in assay [2] (first compound 2 µM); 1.08 in assay [3] (first compound 0.001 µM); 1.32 in assay [3] (first compound 0.003162 µM). Besides, the relative viability in assay [3] (first compound 0.01 µM) was 1.14; in assay [3] (first compound 0.03162 µM), 1.28; in assay [3] (first compound 0.1 µM), 1.29; in assay [4] (first compound 0.001 µM), 0.838; in assay [4] (first compound 0.003162 µM) it was 0.741; in assay [4] (first compound 0.01 µM), 0.741. In addition, the relative viability is 0.673 in assay [4] (first compound 0.03162 µM) and 0.72 in assay [4] (first compound 0.1 µM).

For RERF-LC-KJ, the relative viability turned out to be 1.2 in assay [1] (first compound 0.02 µM); 1.13 in assay [1] (first compound 0.06325 µM); 1.06 in assay [1] (first compound 0.2 µM); 1.17 in assay [1] (first compound 0.6325 µM); 0.85 in assay [1] (first compound 2 µM); 0.826 in assay [2] (first compound 0.02 µM). Besides, the relative viability was determined as 0.777 in assay [2] (first compound 0.06325 µM); 0.817 in assay [2] (first compound 0.2 µM); 0.819 in assay [2] (first compound 0.6325 µM); 0.785 in assay [2] (first compound 2 µM); 1.03 in assay [3] (first compound 0.001 µM); 1.2 in assay [3] (first compound 0.003162 µM). Moreover, the relative viability is 1.03 in assay [3] (first compound 0.01 µM); 0.809 in assay [3] (first compound 0.03162 µM); 0.967 in assay [3] (first compound 0.1 µM); 1.04 in assay [4] (first compound 0.001 µM); 1.1 in assay [4] (first compound 0.003162 µM); 0.872 in assay [4] (first compound 0.01 µM). For the same cell line, the relative viability in assay [4] (first compound 0.03162 µM) came out at 0.866; in assay [4] (first compound 0.1 µM), 0.896.
